Data on two compounds can be found in patent EP4806892A1, “CEREBLON E3 UBIQUITIN LIGASE INHIBITOR” (GAN & LEE PHARMACEUTICALS CO., LTD., priority 2023, dated 2025).

Structures are written as SMILES.

Type in all cases: cell-based
Experiment [1] has as its system MCF-7 cells. Nature of the experiment: MCF-7 cell proliferation inhibition (CCK-8). Conditions: Homo sapiens, MCF7, 144 h, 6 days. How it is done:
The complete culture medium required for breast cancer MCF-7 cells (source ATCC) is DMEM (gibco, Product number: 11995-065) basal medium containing 10% fetal bovine serum. MCF-7 cells were seeded in 96-well plates at a density of 800 cells/well, and different concentrations of PROTAC compounds 1-55 provided in the embodiments of the present invention and the positive control sample ARV-471 (source: Inokai) were prepared to treat cells. The cells were incubated at 37 °C and 5% CO2 in a cell culture incubator for 6 days. Cell viability was detected using a CCK-8 kit (Beyotime, Product number: C0040) according to the manufacturer's instructions. The IC50 value of each PROTAC compound for 6 days was calculated using GraphPad Prism software based on the inhibition rate. Table 7: IC50 value for the inhibition of MCF-7 cell proliferation by PROTAC compounds of the present disclosure and positive control sample

Experiment [2] addresses T1, ERα (Homo sapiens, UniProt P03372).
T1 sequence (P03372 1-595): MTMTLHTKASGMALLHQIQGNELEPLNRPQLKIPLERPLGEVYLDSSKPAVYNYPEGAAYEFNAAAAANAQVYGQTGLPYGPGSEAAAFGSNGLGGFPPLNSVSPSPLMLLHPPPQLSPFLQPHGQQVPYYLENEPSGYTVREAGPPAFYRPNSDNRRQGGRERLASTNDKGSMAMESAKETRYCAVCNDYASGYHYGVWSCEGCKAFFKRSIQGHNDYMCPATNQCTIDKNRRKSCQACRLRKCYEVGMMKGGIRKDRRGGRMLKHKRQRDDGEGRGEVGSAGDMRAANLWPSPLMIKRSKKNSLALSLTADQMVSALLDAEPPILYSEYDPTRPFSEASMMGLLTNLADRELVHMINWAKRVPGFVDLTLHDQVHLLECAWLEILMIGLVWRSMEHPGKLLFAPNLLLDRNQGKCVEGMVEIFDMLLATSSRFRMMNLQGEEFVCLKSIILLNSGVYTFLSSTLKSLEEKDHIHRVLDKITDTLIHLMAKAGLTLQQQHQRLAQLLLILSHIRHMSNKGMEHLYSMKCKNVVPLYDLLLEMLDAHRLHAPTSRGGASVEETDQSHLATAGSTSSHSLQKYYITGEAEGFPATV
Nature of the experiment: ERα degradation in T-47D cells (immunoblot). The arrangement: host or cells: T-47D. The conditions noted are these: 10 nM, 4 hours. As for the experimental part: T-47D (ATCC) cells were cultured in PRMI-1640 medium (30-2001, ATCC) containing 10% FBS (10099141C, Gibco) at 37°C and 5% CO2 until they entered the logarithmic growth phase. T-47D cells were seeded onto 6-well plates at a density of 3×10^5 cells per well, and incubated at 37°C with 5% CO2 for 24 hours. After cell attachment, 1 µL of compound in dimethyl sulfoxide solution (final concentration 0.15-1000 nM) was added and the cells were incubated for another 4 hours at 37°C, 5% CO2. After 4 hours, the culture medium was discarded, and each well was washed once with 1 mL of pre-chilled 1× DPBS. The cells were then lysed with 50 µL of RIPA lysis buffer (P0013B, Beyotime) and 1× protease inhibitor cocktail (P1005, Beyotime). After incubation on ice for 20 minutes, the cells were centrifuged at 14,000 g at 4°C for 30 minutes. The supernatant was carefully collected and analyzed for ERα protein levels by immunoblotting.
On the technique in general: A western blot detects proteins with antibodies after separation by electrophoresis.

Experiment [3] has as its system T-47D cells. Kind of experiment: T-47D cell proliferation inhibition (CCK-8). The conditions noted are these: Homo sapiens, T47D, 144 h, 6 days. How it is done: The complete culture medium required for breast ductal carcinoma T-47D cells is 1640 (ATCC, Product number: A10491-01) basal medium containing 10% fetal bovine serum. T-47D cells were seeded in 96-well plates at a density of 3,000/well, and different concentrations of PROTAC compounds 1-55 provided in the embodiments of the present invention and the positive control sample ARV-471 (source: Inokai) were prepared to treat the cells and incubated at 37°C, 5% CO2 in a cell culture incubator for 6 days. According to the manufacturer's instructions, the CCK-8 kit (Beyotime, Product number: C0040) was used to detect cell viability. The IC50 of each compound for 6 days was calculated using GraphPadPrism software based on the inhibition rate. Table 6: IC50 value for the inhibition of T-47D cell proliferation by PROTAC compounds and positive control sample

Experiment [4] deals with T1, ERα. Nature of the experiment: ERα degradation in MCF-7 cells (Western blot). The conditions noted are these: 10 nM, 4 hours. How it is done: MCF-7 (ATCC) cells were cultured in DMEM medium (11995-065, Gibco) containing 10% FBS (10099141C, Gibco) at 37°C and 5% CO2 until they entered the logarithmic growth phase. MCF-7 cells were seeded at a density of 3×10^5 cells/well in a 6-well plate and incubated at 37°C, 5% CO2 for 24 hours. After cell attachment, 1 µL of compound in dimethyl sulfoxide solution (final concentration 0.15-1000 nM) was added and the cells were incubated for another 4 hours at 37°C, 5% CO2. After 4 hours, the culture medium was discarded, and each well was washed once with 1 mL of pre-chilled 1× DPBS. […] The supernatant was carefully collected and analyzed for ERα protein levels by immunoblotting.
Western blotting: The total protein concentration in the collected cell lysate supernatant was determined using the BCA protein concentration assay kit (enhanced) (P0009, Beyotime). Based on the total protein concentration determined by BCA, the protein concentration was adjusted to 1 µg/µL using RIPA lysis buffer and 5× SDS-PAGE protein loading buffer (MB01015, GenScript). […] Protein maps were analyzed for grayscale values using Image Studio Lite software. The grayscale correction value for each sample was calculated using the formula: grayscale correction value = grayscale value of the target protein / grayscale value of the corresponding internal reference. […]

Usually IC50 stands for the midpoint of a concentration-inhibition curve. A higher IC50 goes with a need for much substance.

For `O=C1CCN(c2ccc3c(c2)CC2(CCN(C[C@H]4CC[C@@H](OC5CCN(c6ccc([C@@H]7c8ccc(O)cc8CC[C@@H]7c7ccccc7)cc6)CC5)CC4)CC2)O3)C(=O)N1` [ER-P-1, 1-(1'-(((1S,4S)-4-((1-(4-((1R,2S)-6-hydroxy-2-phenyl-1,2,3,4-tetrahydro-naphthalen-1-yl)phenyl)piperidin-4-yl)oxy)cyclohexyl)methyl)-3H-spiro [benzofuran-2,4'-piperidine]-5-yl)dihydropyrimidine-2,4(1H,3H)-dione], the concentration for half-maximal inhibition (IC50) in experiment [1] is 845 nM. Further, the “degradation rate of ERα in T-47D cells” value in experiment [2] was “greater than or equal to 30%”.
For the compound `O=C1CCN(c2ccc3c(c2)OCC[C@H]2CN(C[C@H]4CC[C@@H](OC5CCN(c6ccc([C@@H]7c8ccc(O)cc8CC[C@@H]7c7ccccc7)cc6)CC5)CC4)CCN32)C(=O)N1` [ER-P-2, 1-((S)-3-(((1S,4R)-4-((1-(4-((1R,2S)-6-hydroxy-2-phenyl-1,2,3,4-tetrahydronaphthalen-1-yl)phenyl)piperidin-4-yl)oxy)cyclohexyl)methyl)-2,3,4,4a,5,6-hexahydro-1H-benzo[b]pyrazino[1,2-d][1,4]oxazepin-9-yl)dihydropyrimidine-2,4(1H,3H)-dione], the 50% inhibitory concentration (IC50) in experiment [3] came out at 21.7 nM. Also, the “degradation rate of ERα in MCF-7 cells” value in experiment [4] is “greater than or equal to 30%”.
